Measurements: patent US20200405809A1, “COMBINATION OF A CYCLIN DEPENDENT KINASE INHIBITOR AND A BET- BROMODOMAIN INHIBITOR” (Pfizer Inc., priority 2018, published 2020)
pIC50: −log10 of the molar value.

Legend:
[1] = system: T47D breast cancer multicellular tumor spheroids; assay: In vitro screen in T47D breast cancer multicellular tumor spheroids, BET inhibitor plus palbociclib; assay type: cell-based; conditions: for Growth inhibition of T47D spheroids, as average diameter (mm): combination with palbociclib (25 nM) versus single agents; for Synergy score: BET inhibitor (30, 300, 3000 nM) in combination with 25 nM palbociclib, from AUC of spheroid growth curves (Chalice Analyzer)
Method: T47D multicellular tumor spheroids were grown in a low-adhesion 96-well plate for use in screening. […] Two hundred T47D cells were seeded per well of 96-well ultralow attachment plates (ULA-96U, Thermo Fisher). Cells were grown for 4 days to allow spheroid formation, followed by initiation of compound treatment as indicated (day 0). […] The medium was replaced every 3 days. Spheroid average diameter was quantified every 3 days (Celigo 200-BFFL-S, Nexcelcom) and spheroid growth curves were obtained. The area-under-curve (AUC) was quantified and used to calculate synergy scores for BET inhibitors in combination with palbociclib (Chalice Analyzer, Horizon Discovery).

[2] = system: Hs766T pancreatic cancer spheroids; assay: In vitro screen in Hs766T PDAC multicellular tumor spheroids, BET inhibitor plus palbociclib; assay type: cell-based; conditions: combination with palbociclib (50 nM) versus single agents
Method: Hs766T multicellular tumor spheroids were grown in a low-adhesion 96-well plate for use in screening. Hs766T cells were cultured in DMEM medium supplemented with 10% fetal bovine serum (GIBCO™). 2% Matrigel (Cultrex, cat#3432-005-1) was added to the medium, and 400 cells/well were subsequently seeded per well of 96-well ultralow attachment plates (ULA-96U, Thermo Fisher). Cells were grown for 4 days to allow spheroid formation, followed by initiation of compound treatment as indicated (day 0). Cells were treated either with vehicle (DMSO), or with 3 nM, 10 nM or 30 nM of test compound B7, or 30 nM, 300 nM or 3000 nM of test compound B8. […] The medium was replaced every 3 days. Spheroid average diameter was quantified every 3 days (Celigo 200-BFFL-S, Nexcelcom). Spheroid growth curves, generated as described in Example 2, are shown in FIGS. 12A-12C (B7); and FIGS. 13A-13C (B8).

BRD4 = BRD4 (Homo sapiens, UniProt O60885); conditions: method not given; listed beside Literature Ref.; cited from earlier work
[3] = system: MCF-7 breast cancer xenograft; assay: In vivo study in MCF-7 breast cancer xenograft; design: species or system NOD scid gamma (NSG) mice; conditions: palbociclib 50 mpk plus ABBV-075 2 mpk once daily days 0-20, recovery until day 47
Method: NOD scid gamma (NSG) mice (6-7 weeks old, Jax laboratory, Sacramento CA) were subcutaneously injected with 5×10^6 MCF-7 cells (ATCC) with 50% matrigel. When MCF-7 xenografts reached a volume of -150 mm^3, the tumor bearing mice were randomly assigned to four treatment groups, with each n=10 (vehicle, palbociclib (50 mpk), mivebresib (2 mpk), combination treatment with palbociclib (50 mpk) plus mivebresib (2 mpk)). Treatment was initiated after the randomization as indicated. Mice were treated once daily from days 0-20 and then tumors were allowed to recover until day 47. Mean tumor volumes (mm^3) are averages of MCF-7 xenografts (n=10).

Row | Molecule | Growth inhibition of T47D spheroids, as average diameter (mm) [1] | Growth inhibition of Hs766T spheroids, as average diameter (mm) [2] | Synergy score [1] | pIC50 (BRD4) | Tumor growth delay and tumor growth inhibition (mean tumor volume) [3]
1 | Cc1sc2c(c1C)C(c1ccc(Cl)cc1)=N[C@@H](CC(=O)Nc1ccc(O)cc1)c1nnc(C)n1-2 [B10, MK-8628 (OTX015)] | enhanced growth inhibition |  |  |  | 
2 | COc1nnc2ccc(N3CCC(c4ccc(OCCN5CCN(C)C(=O)[C@H]5C)cc4)CC3)nn12 [B8, AZD5153] | enhanced growth inhibition | enhanced growth inhibition |  |  | 
3 | Cc1noc2c1-c1ccccc1C(c1ccc(Cl)cc1)=N[C@H]2CC(N)=O [B9, CPI-0610] | enhanced growth inhibition |  |  |  | 
4 | PFI-1 [B5] | enhanced growth inhibition |  | 0.76 | 6.87 | 
5 | COc1cc2c(cc1-c1c(C)noc1C)ncc1[nH]c(=O)n([C@H](C)c3ccccn3)c12 [B1, IBET-151 (GSK1210151)] | enhanced growth inhibition |  | 1.09 |  | 
6 | COc1cc(OC)c2c(=O)[nH]c(-c3cc(C)c(OCCO)c(C)c3)nc2c1 [B6, RVX-208 (RVX000222 or apabetalone)] | enhanced growth inhibition |  | 0.33 |  | 
7 | CCNC(=O)C[C@@H]1N=C(c2ccc(Cl)cc2)c2cc(OC)ccc2-n2c(C)nnc21 [B3, IBET-762 (GSK525762)] | enhanced growth inhibition |  |  |  | 
8 | Cc1sc2c(c1C)C(c1ccc(Cl)cc1)=N[C@@H](CC(=O)OC(C)(C)C)c1nnc(C)n1-2 [B2, JQ1] | enhanced growth inhibition |  | 1.08 |  | 
9 | Cc1cc2cc(NS(=O)(=O)c3ccccc3F)ccc2[nH]c1=O [B4, PFI-2] | enhanced growth inhibition |  | 0.79 | 7.02 | 
10 | CCS(=O)(=O)Nc1ccc(Oc2ccc(F)cc2F)c(-c2cn(C)c(=O)c3[nH]ccc23)c1 [B7, ABBV-075 (mivebresib)] | enhanced growth inhibition | enhanced growth inhibition |  | 8.82 | enhanced tumor growth delay and tumor growth inhibition
